In the METLIN SMRT retention time set (Domingo-Almenara et al. 2019) one finds RP-LC retention time data, which are given here for 79 molecules.

The data set is described as follows: gradient 5% acetonitrile 3 min, to 50% in 2 min, to 85% in 15 min, held 3 min, 100 µL/min. The following applies: column: Zorbax Extend-C18 2.1 x 50 mm; eluents: water / acetonitrile, 0.1% formic acid. In a few lines:
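The system's dead and dwell volumes were 40 μL and 900 μL, with a Zorbax Extend-C18 column (2.1 × 50 mm, 1.8 μm) run at 100 μL/min in water and acetonitrile containing 0.1% formic acid each. Pure standards were analyzed in mixtures of ~100 molecules by HPLC–quadrupole time-of-flight mass spectrometry in positive and negative ionization mode. Retention time was assigned from computationally picked, manually inspected adduct peaks.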
The molecule `CC1=NS(=O)(=O)N(C)C=C1C(=O)OCc1nc(-c2ccc(OC(F)(F)F)cc2)no1` yielded an RP-LC retention time of 1100 s. As for `Cc1noc(-c2ccnc(-n3cnc(C(=O)N4CCOCC4)c3)c2)n1`, the figure is 638 s; as for `Cc1ccc(-c2nc(CN3CCCC3=O)no2)cc1C`, 841 s; as for `CCOc1ccccc1NS(=O)(=O)c1ccc2c(c1)CCCC(=O)N2`, 783 s.

The molecule `Cc1ccc(-c2nc3cccnc3n2CCCNC(=O)NCc2ccco2)cc1` registered an RP-LC retention time of 674 s. In the case of `c1ccc(NN(Cc2ccncc2)c2ccccc2)cc1`, the RP-LC retention time worked out at 774 s. In turn, `Cc1cc2nn(CC(=O)Nc3ccc(F)c(F)c3)c(=O)n2c(Nc2ccc(F)c(C)c2)n1` yielded an RP-LC retention time of 1090 s. The molecule `Cc1ccccc1Cn1ccnc1C(N)=O` had an RP-LC retention time of 695 s.

`Cc1[nH]nc(-c2c(C)sc(C)c2S(=O)(=O)Nc2ccc(F)c(Cl)c2)c1C` returned an RP-LC retention time of 1140 s. As for `CCn1cc(CC(=O)N2CCC(N3CCCCC3)CC2)c2cccnc21`, the figure is 553 s; as for `COc1cc(C(=O)NC2CCCNC2)cc(OC)c1OC` (centres undefined), 621 s. As for `COC[C@@H]1CN(S(=O)(=O)c2cccc(C#N)c2)C[C@H]1c1ccccn1`, the figure is 715 s; as for `COc1ccc(NS(=O)(=O)c2cc3n(c2)CCCN(C)C3=O)cc1Cl`, 696 s. Molecule `Cc1ccc(-c2noc(C3CCCN3S(=O)(=O)c3ccc4c(c3)CCCC4)n2)cc1` (centres undefined) had an RP-LC retention time of 1350 s. With `Cc1ccn2cc(-c3ccc(NC(=O)c4ccc(Cl)cc4Cl)cc3)nc2n1` the figure was 695 s; with `O=C(CC1=C2CCCCC2NC1=O)Nc1ccccc1` (centres undefined), 681 s. As for `Cc1ccc(C)c(S(=O)(=O)N2CCc3c(c(-c4nnc(-c5ccccc5)o4)nn3C)C2)c1`, the figure is 1020 s. Consider `Cc1nn(C(=O)C(C)(C)C)c(C)c1S(=O)(=O)N1CCCC1`, for which the RP-LC retention time came to 1180 s. As for `Cn1c(CN2CCN(C(=O)c3ccc(C#N)cc3)CC2)nc2cc(C(=O)N3CCCC3)ccc21`, the figure is 604 s.

In turn, `COc1ccc(NC(=O)NC2CCN(c3cc(N4CCCC4)cnn3)C2)cc1Cl` (centres undefined) yielded an RP-LC retention time of 584 s. On to `Cc1ccc(C)c(S(=O)(=O)NCc2c(-c3ccccc3)nc3sc(C)nn23)c1`, for which the RP-LC retention time was determined as 916 s. Molecule `CCN(CC)S(=O)(=O)c1cccc(-c2cn3cc(C)ccc3n2)c1` showed an RP-LC retention time of 598 s.

As to `CCN(C(=O)C1CCN(S(=O)(=O)c2ccc3c(c2)NC(=O)CO3)CC1)c1ccc(OC)cc1`, the RP-LC retention time is 788 s. With `O=C(NCCCn1c(-c2ccncc2)nc2cccnc21)Nc1cccc(F)c1`, the RP-LC retention time is 651 s. As for `CCOc1ccc(-n2ccn3c(CCCC(=O)NC4CCCCCC4)nnc3c2=O)cc1`, the figure is 783 s. As for `CCOC(=O)c1sc2cccc(F)c2c1S(=O)(=O)N1CCN(c2ccccn2)CC1`, the figure is 767 s; as for `O=C(OCc1cc(-c2cccs2)on1)c1cc(-c2ccco2)n[nH]1`, 786 s.

In turn, `CCOc1ccc(-c2noc(Cn3c(=O)n(-c4ccc(F)cc4)c(=O)c4sccc43)n2)cc1OC` showed an RP-LC retention time of 940 s. With `Cc1cccc(CNC(=O)c2ccc3c(c2)nc2n3CCN(C3CCCCC3)C2=O)c1` the figure was 824 s. The molecule `Cc1nc2c(sc3nc(-c4ccccc4)ccc32)c(=O)n1CC(=O)NCc1ccc2c(c1)OCO2` had an RP-LC retention time of 985 s.

As to `CCCC(=O)NC1(c2nc(C(C)C)no2)CCCCC1`, the RP-LC retention time turned out to be 850 s. As to `Cc1ccc(S(=O)(=O)N2C(=O)CCC2C(=O)Nc2cccc3ccccc23)cc1` (centres undefined), the RP-LC retention time amounted to 933 s. In turn, `O=C(c1cc(-c2cccnc2)n[nH]1)N1CCN(C(=O)C2CCC2)CC1` registered an RP-LC retention time of 581 s. As for `Cc1ccccc1C(C(=O)NC1CCCCC1)N(C(=O)Cn1ccnc1C)c1cccc(F)c1` (centres undefined), the figure is 895 s; as for `CN1CCN(CCNC(=O)c2ccc(NC(=O)C3=CSCCO3)cc2)CC1`, 754 s. On to `Cc1ccc(S(=O)(=O)N2C(=O)CCC2C(=O)NCc2nc(-c3ccc(Cl)cc3)no2)cc1` (centres undefined), for which the RP-LC retention time came out at 951 s. As for `CN1CCCc2cc(C(=O)NC3CCCCCC3)sc21`, the figure is 755 s; as for `CCc1cccc(NC(=O)Cn2nc3n(c2=O)CCCCC3)c1`, 722 s; as for `Cc1sc(C)c(S(=O)(=O)Nc2ccccc2Cl)c1-c1cc(C(F)(F)F)on1`, 1140 s. As for `CC(C)NC(=O)C1CCCCN1S(=O)(=O)c1ccc(Br)cc1` (centres undefined), the figure is 969 s. With `Cc1cc(Cl)ccc1NC(=O)N1CCC(c2nc3ccncc3n2C(C)C)C1` (centres undefined) the figure was 648 s; with `Cc1ccnc(N2CCC(C(=O)NCCCN(C)C3CCCCC3)CC2)n1`, 587 s. `O=S(=O)(c1cc(Cl)ccc1Cl)N1CCc2nc(-c3ccccc3)ncc2C1` gave an RP-LC retention time of 1180 s.

On to `CCOc1ccc(NS(=O)(=O)c2cc(C(=O)N3CCN(c4cccc(C)c4)C(C)C3)n[nH]2)cc1` (centres undefined), for which the RP-LC retention time stood at 899 s.

Take `COc1ccc(-c2c(C(=O)NC(C)C)nc3ccccn23)cc1`: the RP-LC retention time was found to be 676 s.

With `Cc1ccc(CNC(=O)Cn2c(=O)c(S(=O)(=O)c3ccccc3)cc3ccccc32)cc1`, the RP-LC retention time is 900 s. As for `CCCNC(=O)C1CCCN(c2ccc(SCC(=O)Nc3ccc(C)c(F)c3)nn2)C1` (centres undefined), the figure is 718 s; as for `CCN(CC)S(=O)(=O)c1cc(-c2nnc(-c3cccc(C)c3)o2)ccc1Cl`, 1200 s.

For the molecule `O=C(NC1CCCCCC1)c1ccnc(N2CCNC(c3ccccc3)C2)c1` (centres undefined), the RP-LC retention time turned out to be 684 s. Consider `O=S(=O)(NCCc1ccccn1)c1ccc2ccccc2c1`, for which the RP-LC retention time was 574 s.

Take `COC(=O)c1ccc(NC(=O)Cn2c3cc(Cl)ccc3c(=O)n2C(C)(C)C)cc1`: the RP-LC retention time came out at 1300 s. `Cc1ccnc(N2CCC(C(=O)N3CCN(Cc4ccc5c(c4)OCO5)CC3)CC2)n1`: the RP-LC retention time stood at 590 s. Molecule `COc1ccc(Cl)cc1C(=O)N1CCN(c2ccc(-c3nc(C)c(C)s3)cn2)CC1` showed an RP-LC retention time of 956 s.

Molecule `COc1ccc(S(=O)(=O)NC2CCN(C(=O)Nc3ccc(F)c(Cl)c3)CC2)cc1` came in with an RP-LC retention time of 900 s. As for `COc1cccc(-c2cn3ccn(-c4ccc(Br)cc4)c(=O)c3n2)c1`, the figure is 866 s. On to `Cc1nc2cc(NC(=O)COc3ccccc3)ccc2s1`, for which the RP-LC retention time was 771 s. As for `O=c1c(=O)n(Cc2nc(-c3ccc4c(c3)OCO4)no2)ccn1Cc1ccc(Cl)cc1`, the figure is 879 s; as for `Cc1nn2c(C)c(C(=O)OC(C)C)nnc2c1-c1ccc(F)cc1`, 1060 s. With `COc1cccc(S(=O)(=O)N2CCC(Cc3nncn3C)C2)c1` (centres undefined) the figure was 630 s; with `CCn1c(=O)c(N2CCC(C(=O)NCCN3CCCCCC3)CC2)nc2cccnc21`, 646 s. As to `O=C(Nc1cccc(Cl)c1)c1nnc(CCCC(=O)N2CCN(c3ccccn3)CC2)s1`, the RP-LC retention time turned out to be 669 s. For the molecule `O=C(NCc1ccc2c(c1)OCO2)C1CCN(c2cc(N3CCCCC3)ncn2)CC1`, the RP-LC retention time was 715 s. With `Cc1nn(C)c2c(=O)n(CC(=O)N3CCN(c4ccccn4)CC3)ccc12` the figure was 558 s; with `CCOC(=O)C1CCCN(C(=O)CCCSc2ccc(NC(=O)C3CC3)nn2)C1` (centres undefined), 726 s; with `Cc1ccccc1-n1ccn(Cc2nc(-c3ccc(C(C)(C)C)cc3)no2)c(=O)c1=O`, 1050 s. `COC(=O)c1ccc(NC(=O)N2CCCC2c2c(C)noc2C)cc1` (centres undefined) yielded an RP-LC retention time of 751 s.

The molecule `CCCS(=O)(=O)c1nc2ccc(NS(=O)(=O)c3ccccc3)cc2s1` showed an RP-LC retention time of 879 s.

For `Cc1ccc(CSc2nnc3c(S(=O)(=O)N4CCCCC4)cccn23)cc1`, the RP-LC retention time was 928 s.

The molecule `COc1ccccc1C(=O)N1CCC2(CC1)N=C(c1ccc(Cl)cc1)NO2` registered an RP-LC retention time of 865 s.

Turning to `O=C(Nc1ccc(F)cc1)OCCOc1ccc([N+](=O)[O-])cc1`, the RP-LC retention time came to 1030 s. With `O=C(COc1ccc(F)cc1)N1CCN(C(=O)c2nnn3c2COC(c2ccc(Cl)cc2)C3)CC1` (centres undefined) the figure was 937 s; with `OCc1nnn(-c2ccccc2)c1CO`, 642 s; with `COc1cccc(CNC(=O)CCC2CCN(c3cc(NC4CC4)ncn3)CC2)c1`, 575 s.

For `CC(C)(Oc1ccc(Cl)cc1)C(=O)Nc1ccc2cn[nH]c2c1`, the RP-LC retention time stood at 822 s. Turning to `CC(=O)Nc1c(C)nn(-c2ccccc2)c1N1CCC(C(=O)N2CCN(c3ccccn3)CC2)CC1`, the RP-LC retention time is 569 s.

`CCOC(=O)C1=C(CN2CCN(Cc3ccccc3)CC2)NC(=O)NC1c1cccc(OC)c1OC` (centres undefined) showed an RP-LC retention time of 660 s. With `O=C(c1ccccn1)N1CC(c2nc(-c3ccccc3)no2)C2(CCOCC2)C1` (centres undefined) the figure was 743 s; with `COC(=O)c1ccc2c(=O)n(-c3ccc(C)cc3)c(N3CCN(c4ccccn4)CC3)nc2c1`, 728 s. `COc1ccc(-c2nc3cnccn3c2Nc2ccc(C(=O)NCCN3CCOCC3)cc2)cc1` gave an RP-LC retention time of 584 s.
